Data from PubChem BioAssay AID330 (DTP/NCI, 2004).
Where “and” joins values, the source holds several entries; their conditions need not be identical. Identical values can stand only once. Inconclusive results and toxic doses are left out.

Tested on: P388 leukemia ip, CD2F1 mice, survival T/C
Assay: NCI In Vivo Anticancer Drug Screen. Data for tumor model P388 Leukemia (intraperitoneal) in CD2F1 (CDF1) mice
Settings: endpoint: median survival time, higher = longer survival
Outline: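 Mice carrying the transplanted tumor received test compound or vehicle. Survival was recorded in each group, and the value is the treated-group measurement divided by that of the vehicle-treated control group.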

[1] = dose: 50.0 mg/kg/injection, schedule: Q01DX005 (ip), vehicle: Klucel (hydroxypropylcellulose) (HPC)
[2] = dose: 100.0 mg/kg/injection, schedule: Q01DX005 (ip), vehicle: Klucel (hydroxypropylcellulose) (HPC)
[3] = dose: 50.0 mg/kg/injection, schedule: Q01DX009 (ip), vehicle: Klucel (hydroxypropylcellulose) (HPC)
[4] = dose: 100.0 mg/kg/injection, schedule: Q01DX009 (ip), vehicle: Klucel (hydroxypropylcellulose) (HPC)
[5] = dose: 200.0 mg/kg/injection, schedule: Q01DX009 (ip), vehicle: Klucel (hydroxypropylcellulose) (HPC)
[6] = dose: 60.0 mg/kg/injection, schedule: Q01DX005 (ip), vehicle: saline with Tween-80
[7] = dose: 60.0 mg/kg/injection, schedule: Q01DX005 (ip), vehicle: Klucel (hydroxypropylcellulose) (HPC)
[8] = dose: 120.0 mg/kg/injection, schedule: Q01DX005 (ip), vehicle: Klucel (hydroxypropylcellulose) (HPC)
[9] = dose: 240.0 mg/kg/injection, schedule: Q01DX005 (ip), vehicle: Klucel (hydroxypropylcellulose) (HPC)
[10] = dose: 60.0 mg/kg/injection, schedule: Q01DX005 (ip), vehicle: saline
[11] = dose: 120.0 mg/kg/injection, schedule: Q01DX005 (ip), vehicle: saline

## CCc1nc(N)nc(N)c1-c1ccc(N(C)C)c(N)c1
[1]
  T/C: 100 % of control
[2]
  T/C: 96 % of control

## C=C1CCC2C(OC(=O)C2(O)CO)C2C(=C)C(O)CC12 (configuration not stated)
dose: 9.38 mg/kg/injection, schedule: Q01DX005 (ip), vehicle: Klucel (hydroxypropylcellulose) (HPC)
  T/C: 103 % of control
dose: 18.75 mg/kg/injection, schedule: Q01DX005 (ip), vehicle: Klucel (hydroxypropylcellulose) (HPC)
  T/C: 105 % of control
dose: 37.5 mg/kg/injection, schedule: Q01DX005 (ip), vehicle: Klucel (hydroxypropylcellulose) (HPC)
  T/C: 100 % of control
dose: 75.0 mg/kg/injection, schedule: Q01DX005 (ip), vehicle: Klucel (hydroxypropylcellulose) (HPC)
  T/C: 104 % of control
dose: 150.0 mg/kg/injection, schedule: Q01DX005 (ip), vehicle: Klucel (hydroxypropylcellulose) (HPC)
  T/C: 113 % of control

## CC(C)(C)n1nnnc1Cl
[3]
  T/C: 107 % of control
[4]
  T/C: 102 % of control
[5]
  T/C: 107 % of control

## CCN(CCOC(=O)Nc1ccc(Cl)cc1)C(=O)Nc1ccc(Cl)cc1
dose: 60.0 mg/kg/injection, schedule: Q01DX005 (ip), vehicle: Klucel + Tween-80
  T/C: 90 % of control
dose: 120.0 mg/kg/injection, schedule: Q01DX005 (ip), vehicle: Klucel + Tween-80
  T/C: 87 % of control
dose: 240.0 mg/kg/injection, schedule: Q01DX005 (ip), vehicle: Klucel + Tween-80
  T/C: 87 % of control

## O=C(Nc1ccccc1)P(=O)(O)c1ccccc1
dose: 12.5 mg/kg/injection, schedule: Q01DX009 (ip), vehicle: Klucel (hydroxypropylcellulose) (HPC)
  T/C: 93 % of control
dose: 25.0 mg/kg/injection, schedule: Q01DX009 (ip), vehicle: Klucel (hydroxypropylcellulose) (HPC)
  T/C: 100 % of control
[3]
  T/C: 97 % of control
[4]
  T/C: 93 % of control

## CC1=C(C#N)C(=O)OC1(C)C1CCCC(=O)C1 (configuration not stated)
dose: 7.5 mg/kg/injection, schedule: Q01DX005 (ip), vehicle: saline with Tween-80
  T/C: 99 % of control
dose: 15.0 mg/kg/injection, schedule: Q01DX005 (ip), vehicle: saline with Tween-80
  T/C: 100 % of control
dose: 30.0 mg/kg/injection, schedule: Q01DX005 (ip), vehicle: saline with Tween-80
  T/C: 98 % of control
[6]
  T/C: 100 % of control and 107 % of control

## S=C(Nc1ccc(Br)cc1)SCc1ccc2c(c1)OCO2
dose: 50.0 mg/kg/injection, schedule: Q01DX009 (ip), vehicle: suspension in saline
  T/C: 109 % of control
dose: 100.0 mg/kg/injection, schedule: Q01DX009 (ip), vehicle: suspension in saline
  T/C: 119 % of control
dose: 200.0 mg/kg/injection, schedule: Q01DX009 (ip), vehicle: suspension in saline
  T/C: 93 % of control

## O=C(CP(=O)(O)O)OC1CCCCC1
dose: 100.0 mg/kg/injection, schedule: Q01DX001 (ip), vehicle: saline
  T/C: 101 % of control
dose: 200.0 mg/kg/injection, schedule: Q01DX001 (ip), vehicle: saline
  T/C: 101 % of control
dose: 400.0 mg/kg/injection, schedule: Q01DX001 (ip), vehicle: saline
  T/C: 100 % of control

## C[C@@H]1CC(c2ccc(Cl)cc2)[C@@H](c2ccccc2)C(=O)O1 (some centres not stated)
dose: 100.0 mg/kg/injection, schedule: Q04DX003 (ip), vehicle: Klucel (hydroxypropylcellulose) (HPC)
  T/C: 100 % of control
dose: 200.0 mg/kg/injection, schedule: Q04DX003 (ip), vehicle: Klucel (hydroxypropylcellulose) (HPC)
  T/C: 99 % of control
dose: 400.0 mg/kg/injection, schedule: Q04DX003 (ip), vehicle: Klucel (hydroxypropylcellulose) (HPC)
  T/C: 97 % of control

## O=C1CC(O)C2C(=O)c3c(c(Cl)c4ccccc4c3O)C(=O)C2C1 (configuration not stated)
[7]
  T/C: 94 % of control
[8]
  T/C: 94 % of control
[9]
  T/C: 93 % of control

## [CH3][Ge]1([CH3])[CH2]C(c2ccccc2)=C(c2ccccc2)[CH2]1
[7]
  T/C: 99 % of control
[8]
  T/C: 94 % of control
[9]
  T/C: 90 % of control

## CCC(CN)C1=Nc2ccccc2C1 (configuration not stated)
dose: 25.0 mg/kg/injection, schedule: Q04DX003 (ip), vehicle: saline
  T/C: 101 % of control
dose: 50.0 mg/kg/injection, schedule: Q04DX003 (ip), vehicle: saline
  T/C: 96 % of control
dose: 100.0 mg/kg/injection, schedule: Q04DX003 (ip), vehicle: saline
  T/C: 103 % of control and 111 % of control

## Cc1cc(=O)[nH][nH]1
dose: 100.0 mg/kg/injection, schedule: Q04DX002 (ip), vehicle: saline with Tween-80
  T/C: 97 % of control
dose: 200.0 mg/kg/injection, schedule: Q04DX002 (ip), vehicle: saline with Tween-80
  T/C: 100 % of control
dose: 400.0 mg/kg/injection, schedule: Q04DX002 (ip), vehicle: saline with Tween-80
  T/C: 94 % of control

## CCOC(=Nc1ccc(C#N)cc1)SC(c1ccccc1)(c1ccccc1)c1ccccc1
dose: 50.0 mg/kg/injection, schedule: Q01DX005 (ip), vehicle: saline with Tween-80
  T/C: 104 % of control
dose: 100.0 mg/kg/injection, schedule: Q01DX005 (ip), vehicle: saline with Tween-80
  T/C: 96 % of control
dose: 200.0 mg/kg/injection, schedule: Q01DX005 (ip), vehicle: saline with Tween-80
  T/C: 86 % of control

## CCSC(=O)/C=C\C=[N+](/[O-])OC
dose: 12.5 mg/kg/injection, schedule: Q01DX009 (ip), vehicle: other
  T/C: 103 % of control
dose: 25.0 mg/kg/injection, schedule: Q01DX009 (ip), vehicle: other
  T/C: 104 % of control
dose: 50.0 mg/kg/injection, schedule: Q01DX009 (ip), vehicle: other
  T/C: 112 % of control and 94 % of control
dose: 100.0 mg/kg/injection, schedule: Q01DX009 (ip), vehicle: other
  T/C: 97 % of control

## O=S(=O)(Cc1ccccc1)/N=C\c1ccc(Cl)cc1
[3]
  T/C: 95 % of control
[4]
  T/C: 103 % of control
[5]
  T/C: 104 % of control

## CCCCCCCCCC(=O)Oc1c2ccoc2cc2oc(=O)ccc12
dose: 100.0 mg/kg/injection, schedule: Q01DX001 (ip), vehicle: Klucel (hydroxypropylcellulose) (HPC)
  T/C: 98 % of control
dose: 200.0 mg/kg/injection, schedule: Q01DX001 (ip), vehicle: Klucel (hydroxypropylcellulose) (HPC)
  T/C: 91 % of control
dose: 400.0 mg/kg/injection, schedule: Q01DX001 (ip), vehicle: Klucel (hydroxypropylcellulose) (HPC)
  T/C: 103 % of control

## FC(F)(F)SN1CN(SC(F)(F)F)CN(SC(F)(F)F)CN(SC(F)(F)F)CN(SC(F)(F)F)C1
[10]
  T/C: 92 % of control
[11]
  T/C: 92 % of control

## COC12[C@@H]3N[C@@H]3CN1C1=C(C(=O)C(NCCSSCCNC3=C(C)C(=O)C4=C(C3=O)C(COC(N)=O)[C@]3(OC)C5N[C@@H]5CN43)=C(C)C1=O)[C@@H]2COC(N)=O (some centres not stated)
dose: 3.12 mg/kg/injection, schedule: Q01DX001 (ip), vehicle: DMSO
  T/C: 157 % of control
dose: 6.25 mg/kg/injection, schedule: Q01DX001 (ip), vehicle: DMSO
  T/C: 161 % of control
dose: 12.5 mg/kg/injection, schedule: Q01DX001 (ip), vehicle: DMSO
  T/C: 177 % of control
dose: 25.0 mg/kg/injection, schedule: Q01DX001 (ip), vehicle: DMSO
  T/C: 233 % of control

## O=C1/C(=C/c2cccs2)CCc2ccccc21
[7]
  T/C: 100 % of control
[8]
  T/C: 107 % of control
[9]
  T/C: 98 % of control

## CCOC(=O)N1CC23C(C)C(C)=C(C)C2C3(C)N1C(=O)OCC (configuration not stated)
[1]
  T/C: 100 % of control
[2]
  T/C: 100 % of control
dose: 200.0 mg/kg/injection, schedule: Q01DX005 (ip), vehicle: Klucel (hydroxypropylcellulose) (HPC)
  T/C: 98 % of control

## COC(OC)C(Sc1ccccc1-n1cccc1)c1ccccc1 (configuration not stated)
[10]
  T/C: 105 % of control
[11]
  T/C: 103 % of control
dose: 240.0 mg/kg/injection, schedule: Q01DX005 (ip), vehicle: saline
  T/C: 108 % of control

## NC(=O)C[n+]1ccccc1
dose: 50.0 mg/kg/injection, schedule: Q01DX009 (ip), vehicle: saline
  T/C: 101 % of control
dose: 100.0 mg/kg/injection, schedule: Q01DX009 (ip), vehicle: saline
  T/C: 111 % of control
dose: 200.0 mg/kg/injection, schedule: Q01DX009 (ip), vehicle: saline
  T/C: 118 % of control
dose: 400.0 mg/kg/injection, schedule: Q01DX009 (ip), vehicle: saline
  T/C: 112 % of control

## COc1ccc(OC)c(NC(=O)Oc2ccc(C#N)cc2)c1
[6]
  T/C: 119 % of control
dose: 120.0 mg/kg/injection, schedule: Q01DX005 (ip), vehicle: saline with Tween-80
  T/C: 107 % of control
dose: 240.0 mg/kg/injection, schedule: Q01DX005 (ip), vehicle: saline with Tween-80
  T/C: 111 % of control
